From paper PMC9639148 (Journal for Immunotherapy of Cancer, 2022)

Assays:
CD8+ T cells = assay: T cell migration assay; type: cell-based, human; settings: supernatant of KYSE70 pretreated with 10 μM for 48 hours
IFN-γ^+CD8^+ T cells [1] = assay: Ex vivo intracellular cytokine staining, 4-NQO-induced ESCC mice; type: in vivo, mouse; settings: 0.5 mg/kg each i.p.
APOBEC3G [2] = target: T1, APOBEC3G (Homo sapiens, UniProt Q9HC16); assay: MST, APOBEC3G protein; type: binding
APOBEC3A [3] = target: T2, APOBEC3A (Homo sapiens, UniProt P31941); assay: MST, APOBEC3A protein; type: binding
T2 sequence (P31941 whole entry): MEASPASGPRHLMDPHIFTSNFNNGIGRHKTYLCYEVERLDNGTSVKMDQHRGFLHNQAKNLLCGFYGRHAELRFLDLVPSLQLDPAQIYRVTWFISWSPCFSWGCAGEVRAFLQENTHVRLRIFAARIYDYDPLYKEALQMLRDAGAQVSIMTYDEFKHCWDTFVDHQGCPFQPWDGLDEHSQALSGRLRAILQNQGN

[4] = Thyroid function in vivo, naive C57BL/6J mice; set-up: species or system mouse; settings: 0.5, 2 and 8 mg/kg i.p. every 2 days for 2 weeks, vs NS group
APOBEC3B [5] = assay: qRT-PCR of APOBEC3B mRNA in KYSE70 cells; type: cell-based, human; settings: 48 hours
[6] = In vivo toxicity analysis, 4-NQO-induced ESCC mice; set-up: species or system mouse
KYSE150-APOBEC3B cells = KYSE150-APOBEC3B cells (Homo sapiens, UniProt Q9UH17); assay: MST within KYSE150-APOBEC3B cells; type: binding
Sequence of KYSE150-APOBEC3B cells (Q9UH17 whole entry): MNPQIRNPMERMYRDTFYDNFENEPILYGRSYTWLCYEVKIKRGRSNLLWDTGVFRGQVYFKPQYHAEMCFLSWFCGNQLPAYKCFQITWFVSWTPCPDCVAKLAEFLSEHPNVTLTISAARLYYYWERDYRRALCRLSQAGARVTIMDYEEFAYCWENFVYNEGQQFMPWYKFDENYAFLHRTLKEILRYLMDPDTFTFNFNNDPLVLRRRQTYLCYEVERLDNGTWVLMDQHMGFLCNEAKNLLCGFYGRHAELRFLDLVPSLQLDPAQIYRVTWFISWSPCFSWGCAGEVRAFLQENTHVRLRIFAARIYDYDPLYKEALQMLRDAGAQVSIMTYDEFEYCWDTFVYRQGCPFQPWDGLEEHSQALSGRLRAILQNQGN

IFN-γ^+CD8^+ T cells [7] = assay: Ex vivo intracellular cytokine staining, AOM/DSS-induced colon cancer mice; type: in vivo, mouse; settings: 0.5 mg/kg each i.p.
HET-1A cells = assay: Cell viability assay; type: cell-based, human; settings: MTT, 24, 48 and 72 hours
CD8^+ T cells [8] = assay: Activated human PBMCs directly treated; type: cell-based; settings: 10 µM for 3 days
APOBEC3G [9] = target: T1, APOBEC3G; assay: biochemical; settings: read-out: inhibition rate of APOBEC3G deaminase activity
[10] = In vivo toxicity analysis, AOM/DSS-induced colon cancer mice; set-up: species or system mouse; settings: 0.5 mg/kg each i.p.
IL-7 = assay: ELISA, IL-7 in KYSE70 supernatants; type: cell-based, human; settings: 10 µM, 48 hours, vs vehicle supernatants; IL-7 expression level was too low
PD-L1 in RKO cell = assay: PD-L1 expression by flow cytometry, RKO; type: cell-based, human; settings: 48 hours
APOBEC3B [11] = target: T3, APOBEC3B (Homo sapiens, UniProt Q9UH17); type: biochemical
T3 sequence (Q9UH17 whole entry): as above

KYSE70 cells [12] = assay: Transcriptome sequencing of KYSE70 cells; type: cell-based, human; settings: 10 µM for 48 hours
[13] = 0.5, 2 and 8 mg/kg i.p. every 2 days for 2 weeks
CD8^+ T cells [14] = assay: Coculture assay: PBMCs cultured in supernatants of KYSE70 cells; type: cell-based, human; settings: supernatants of KYSE70 cells pretreated with 10 µM for 48 hours, PBMCs 3 days
KYSE150-vector cells = assay: MST within KYSE150-vector cells
IL-7 and IL-15 = assay: qRT-PCR of IL-7 and IL-15 in KYSE70 cells; type: cell-based, human; settings: 10 µM
IL-15 = assay: ELISA, IL-15 in KYSE70 supernatants; type: cell-based, human; settings: 10 µM, 48 hours, vs vehicle supernatants
APOBEC3A [15] = target: T2, APOBEC3A; assay: biochemical; settings: read-out: inhibition rate of APOBEC3A deaminase activity
4-NQO-induced ESCC = assay: 4-NQO-induced spontaneous ESCC mouse model; type: in vivo
KYSE70 cells [16] = assay: Cell viability assay; type: cell-based, human; settings: 0.01-100 μM, MTT
APOBEC3 = assay: Mouse whole exome sequencing of esophagus tissues; type: in vivo
APOBEC3B [17] = target: T3, APOBEC3B; assay: Fluorescence-based ssDNA cytosine deamination assay; type: biochemical; settings: IC50, dose-dependent assay, figure 2D, E
[18] = system: AOM/DSS-induced colon cancer; assay: AOM/DSS-induced spontaneous colon cancer mouse model; type: in vivo
CD8^+ T cells [19] = assay: Activated PBMCs cocultured with KYSE70 cells; type: cell-based, human; settings: 10 µM, coculture with KYSE70 cells
APOBEC3B [20] = target: T3, APOBEC3B; assay: Microscale thermophoresis; type: binding
[21] = system: APOBEC3B overexpressed E. coli; assay: Bacterial resequencing; type: cell-based, Escherichia coli; settings: 2 µM for 3 days
PD-L1 in KYSE70 cell = assay: PD-L1 expression by flow cytometry, KYSE70; type: cell-based, human; settings: 10 µM and 100 µM, 48 hours
[22] = both low (0.5 mg/kg) and high dose (2 mg/kg) i.p.

T1 sequence (Q9HC16 whole entry): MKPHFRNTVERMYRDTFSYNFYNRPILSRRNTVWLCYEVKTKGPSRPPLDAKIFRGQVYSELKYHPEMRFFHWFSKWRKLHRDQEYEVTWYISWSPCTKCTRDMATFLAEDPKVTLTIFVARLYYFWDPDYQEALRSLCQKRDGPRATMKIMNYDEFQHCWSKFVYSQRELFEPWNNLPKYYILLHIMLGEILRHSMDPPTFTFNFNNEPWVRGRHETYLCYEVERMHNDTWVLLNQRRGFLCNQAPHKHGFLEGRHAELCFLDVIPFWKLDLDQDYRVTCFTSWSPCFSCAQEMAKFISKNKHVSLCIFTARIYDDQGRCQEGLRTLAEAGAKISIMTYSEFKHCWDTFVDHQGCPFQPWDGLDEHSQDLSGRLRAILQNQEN

In the case of N[C@@H](Cc1cc(I)c(O)c(I)c1)C(=O)O [SMC247, 3,5-diiodotyrosine], the “migration of CD8^+ T cells” value (CD8+ T cells) is reported as “could not promote the migration”, the “proportions of IFN-γ^+CD8^+ T cells in both spleen and lymph node” value (IFN-γ^+CD8^+ T cells [1]) is reported as “increased” and the “binding to APOBEC3G” value (APOBEC3G [2]) is reported as “weakly bound”. For the same compound, the “binding to APOBEC3A” value (APOBEC3A [3]) was “weakly bound”, the “thyroid-stimulating hormone, free triiodothyronine (fT3) and free thyroxine (fT4)” value [4] was “no significant difference” and the “expression of APOBEC3B” value (APOBEC3B [5]) was “down-regulated”. For the same compound, the “AST and ALT in serum” value ([6]; 0.5 mg/kg vs NS group) was “no significant differences”, the “H&E staining of main viscera” value ([6]; heart, liver, spleen, lung, kidney) was “no obvious toxic effects” and the Kd (KYSE150-APOBEC3B cells) was 6140 ± 7930 nM. For the same compound, the “proportions of IFN-γ^+CD8^+ T cells in both spleen and lymph node” value (IFN-γ^+CD8^+ T cells [7]) was “increased”, the “viability of HET-1A cells” value (HET-1A cells) was “did not affect the viability” and the “function of CD8^+ T cells in the absence of tumor cells” value (CD8^+ T cells [8]) was “did not directly affect the function of CD8^+ T cells”. For the same compound, the inhibition at 100 µM (APOBEC3G [9]) was under 50%, the “toxic effects (H&E of organs, AST and ALT)” value [10] was “no obvious toxic effects” and the “secretion level of IL-7” value (IL-7) was “significantly greater”. For the same compound, the “expression of PD-L1” value (PD-L1 in RKO cell) was “up-regulate”, the “deaminase activity of APOBEC3B” value (APOBEC3B [11]) was “significantly inhibited” and the product amount (APOBEC3B [11]) was “reduced in a dose-dependent manner”. The “IL-7 and IL-15 expression (transcriptome sequencing)” value (KYSE70 cells [12]) was “significantly upregulated”, the “blood routine indexes (WBC, HGB, PLT, RBC) and blood biochemical (AST and ALT) indexes” value [13] was “within the normal range” and the “promotion effect on CD8^+ T cells” value (CD8^+ T cells [14]) was “still existed”. For the same compound, the “affinity to KYSE150-vector cells” value (KYSE150-vector cells) was “no affinity”, the “IL-7 and IL-15 expression levels (qRT-PCR)” value (IL-7 and IL-15) was “consistent with the above sequencing results” and the “secretion level of IL-15” value (IL-15) was “significantly greater”. For the same compound, the inhibition at 100 µM (APOBEC3A [15]) was under 50%, the “number and length of ESCC tumor tissue” value (4-NQO-induced ESCC; 0.5 mg/kg or 2 mg/kg i.p. every 2 days for 2 weeks, vs NS) was “significantly reduced” and the body weight (4-NQO-induced ESCC; [22]) was “slow down the loss trend of body weight”. The “overall survival of mice” value (4-NQO-induced ESCC; [22]) was “significantly prolong”, the “H&E of esophagus tissues” value (4-NQO-induced ESCC; combination study) was “effectively alleviated” and the “number and length of ESCC tumor tissues” value (4-NQO-induced ESCC; combination study, 0.5 mg/kg each i.p. every 2 days for 2 weeks) was “significantly reduced”. The “proliferation of KYSE70 cells” value (KYSE70 cells [16]) was “could not inhibit the proliferation”, the “C>A mutation type” value (APOBEC3; 0.5 mg/kg i.p.) was “reduction” and the “contribution of APOBEC activity related signatures (SBS2 and SBS13)” value (APOBEC3; 0.5 mg/kg i.p.) was “weakened”. The “mutation counts of C>T and C>G” value (APOBEC3; 0.5 mg/kg i.p.) was “reduced”, the “number of mutations at exome levels” value (APOBEC3; 0.5 mg/kg i.p. every 2 days for 2 weeks, vs NS) was “significantly reduced” and the IC50 (APOBEC3B [17]) was 1690 nM. For the same compound, the “H&E of colon tissue” value ([18]; 0.5 mg/kg each i.p.) was “the colonic mucosa was intact and the glandular cells were basically arranged in order”, the “disease activity index (DAI)” value ([18]; 0.5 mg/kg each i.p.) was “decreased” and the length of colon ([18]; 0.5 mg/kg each i.p.) was “without changing the length of colon basically”. For the same compound, the “number and size of tumors in colonic epithelial tissues” value ([18]; 0.5 mg/kg each i.p.) was “significantly reduced”, the body weight loss ([18]; 0.5 mg/kg each i.p. every 2 days for 9 weeks) was “significantly slow down the trend of body weight loss” and the enteritis phenomenon ([18]; mouse, in vivo) was “significantly relieved”. For the same compound, the “proliferation of CD8^+ T cells and proportion of IFN-γ^+CD8^+ T cells” value (CD8^+ T cells [19]) was “promoted”, the Kd (APOBEC3B [20]) was 65 nM and the “C>T transversion driven by APOBEC3B in E. coli genome” value [21] was “significant reduced”. The “expression of PD-L1” value (PD-L1 in KYSE70 cell) was “up-regulate”.
